Results from US5618537A, “Plant-based medicaments for increasing the tone and modulating the tone of the smooth muscular organ” (Steigerwald Arzneimittelwerk GmbH, priority 1991, dated 1997).

Legend:
guinea-pig ileum = experiment: Increase in basal tone of resting isolated guinea-pig ileum (Magnus model); design: unit not given here; conditions: 40 μg/l; for Contraction induced by acetylcholine, Average value: average of 6
carrageenan oedema = experiment: Carrageenan oedema model of the rat (paw volume, plethysmometer); assay type: in vivo; conditions: 4 mg/kg of body wt., 1/2 h before induction
Protocol: The carrageenan oedema model of the rat is an internationally recognised pharmacological method for uncovering clinically relevant anti-inflammatory agents.
The test substances were administered 1/2 h before induction of oedema; the control animals received the solvent (30% ethanol). The paw volume was measured with a plethysmometer before (0 value) oedema induction and 1, 2, 3, 4 and 6 hours after.
The anti-inflammatory action of the test substances was calculated according to the formula [formula] V=average value of the differences from the 0 value: drug group K=average value of the differences from the 0 value; control group

Structure (SMILES)	Contraction induced by acetylcholine (comparison for increase in basal tone) (guinea-pig ileum; Table 2 series (STW 5-II), Expt. 1)	Contraction induced by acetylcholine (comparison for increase in basal tone) (guinea-pig ileum; Table 2 series (STW 5-II), Expt. 2)	Contraction induced by acetylcholine (comparison for increase in basal tone) (guinea-pig ileum; Table 2 series (STW 5-II), Expt. 3)	Contraction induced by acetylcholine (comparison for increase in basal tone) (guinea-pig ileum; Table 2 series (STW 5-II), Expt. 4)	Contraction induced by acetylcholine (comparison for increase in basal tone) (guinea-pig ileum; Table 2 series (STW 5-II), Expt. 5)	Contraction induced by acetylcholine (comparison for increase in basal tone) (guinea-pig ileum; Table 2 series (STW 5-II), Expt. 6)	Contraction induced by acetylcholine, Average value (guinea-pig ileum; Table 2 series (STW 5-II))	Contraction induced by acetylcholine (comparison for increase in basal tone) (guinea-pig ileum; Table 3 series (STW 5), Expt. 1)	Contraction induced by acetylcholine (comparison for increase in basal tone) (guinea-pig ileum; Table 3 series (STW 5), Expt. 2)	Contraction induced by acetylcholine (comparison for increase in basal tone) (guinea-pig ileum; Table 3 series (STW 5), Expt. 3)	Contraction induced by acetylcholine (comparison for increase in basal tone) (guinea-pig ileum; Table 3 series (STW 5), Expt. 4)	Contraction induced by acetylcholine (comparison for increase in basal tone) (guinea-pig ileum; Table 3 series (STW 5), Expt. 5)	Contraction induced by acetylcholine (comparison for increase in basal tone) (guinea-pig ileum; Table 3 series (STW 5), Expt. 6)	Contraction induced by acetylcholine, Average value (guinea-pig ileum; Table 3 series (STW 5))	% inhibition of carrageenan oedema (carrageenan oedema; 1 h after oedema induction) [%]	% inhibition of carrageenan oedema (carrageenan oedema; 2 h after oedema induction) [%]	% inhibition of carrageenan oedema (carrageenan oedema; 3 h after oedema induction) [%]	% inhibition of carrageenan oedema (carrageenan oedema; 4 h after oedema induction) [%]	% inhibition of carrageenan oedema (carrageenan oedema; 6 h after oedema induction) [%]
CC(=O)OCC[N+](C)(C)C [Acetylch., acetylcholine]	10.1	14.6	11.7	14.0	12.7	8.6	11.95	11.8	6.3	12.1	9.9	12.2	5.9	9.70	–	–	–	–	–
COc1ccc2c(c1)c(CC(=O)O)c(C)n2C(=O)c1ccc(Cl)cc1 [Indomethacin]	–	–	–	–	–	–	–	–	–	–	–	–	–	–	24.0	23.5	35.0	47.5	61.3
